Assay results from patent publication US20100222421A1, “Usage of Baicalein in the Preparation of a Pharmaceutical Composition for the Treatment of Traumatic Brain Injury” (National Defense Medical Center, priority 2009, published 2010).

Legend:
Assay type in all cases: in vivo, rat
IL-1β-positive cells = assay: Immunohistochemistry, IL-1β-positive cells after CCI injury; details: single-dose 30 mg kg^-1 i.p.; cortical tissue adjacent to contusion core, 1 day post-injury
Method: A previously described CCI injury procedure was utilized (Chen et al., 2003). Male Sprague-Dawley rats, which have body weight of 250-300 g, were anaesthetized with sodium pentobarbital (i.p.; 50 mgkg^−1; Rhone Merieux, Harlow, UK) and placed in a stereotaxic frame. A 5-mm craniotomy was performed over the left parietal cortex, centered on the coronal suture and 3 mm lateral to the sagittal suture. Considerable care was taken to avoid injury to the underlying dura. Injury was made using a pneumatic piston with a rounded metal tip (2.5 mm diameter) that was angled 22.5° C. to the vertical so that the tip was perpendicular with the brain surface at the centre of the craniotomy. A velocity of 4 ms^−1 and a deformation depth 2 mm below the dura were used. The bone flap was immediately replaced and sealed, and the scalp was closed with sutures. Body temperature was monitored throughout the surgery by a rectal probe; temperature was maintained at 37.0±0.5° C. using a heated pad. […] Testing after injury was as follows: (1) real-time quantitative RT-PCR analysis for TNF-α, IL-1β and IL-6 mRNA expression at 6 h post-injury (n=7 for each group); (2) FluoroJade B (FJB) staining, TNF-α, IL-1β and IL-6 immunohistochemistry, as well as ELISA at 24 h post-injury to assess degenerative neurons and to determine cytokine expression (n=7 for each group). […]

[1] = system: rats with controlled cortical impact (CCI) injury; assay: Rotarod test after CCI injury; details: for performance on the rotarod test versus vehicle-treated rats: days 1 to 28, P<0.05
Method: A previously described CCI injury procedure was utilized (Chen et al., 2003). Male Sprague-Dawley rats, which have body weight of 250-300 g, were anaesthetized with sodium pentobarbital (i.p.; 50 mgkg^−1; Rhone Merieux, Harlow, UK) and placed in a stereotaxic frame. A 5-mm craniotomy was performed over the left parietal cortex, centered on the coronal suture and 3 mm lateral to the sagittal suture. Considerable care was taken to avoid injury to the underlying dura. Injury was made using a pneumatic piston with a rounded metal tip (2.5 mm diameter) that was angled 22.5° C. to the vertical so that the tip was perpendicular with the brain surface at the centre of the craniotomy. A velocity of 4 ms^−1 and a deformation depth 2 mm below the dura were used. The bone flap was immediately replaced and sealed, and the scalp was closed with sutures. Body temperature was monitored throughout the surgery by a rectal probe; temperature was maintained at 37.0±0.5° C. using a heated pad. Rats were placed in a heated cage to maintain body temperature, while recovering from anaesthesia.
Baicalein (30 mg kg^−1) dissolved in 10% dimethyl sulphoxide (0.25-0.3 mL) or a corresponding volume of vehicle (10% dimethyl sulphoxide) was administered i.p. immediately following injury or daily for 4 days (immediately, 25, 49 and 73 h) after injury. Behaviour testing using the rotarod, tactile adhesive removal, mNSS and beam walk tests was performed at 28 hours as well as 4, 7, 14, 21 and 28 days post-injury. […]
An accelerating rotarod was used to measure rat motor function and balance (Hamm, 2001). Each rat was placed on the rotarod cylinder, and the time for which the animal remained on the rotarod was measured. […] One hour before CCI, the mean duration on the device was recorded with three rotarod measurements as the pre-injury baseline values. Post-injury latencies were expressed as a percentage of their respective baseline values to reduce inter-animal variability.

[2] = system: rats with controlled cortical impact (CCI) injury; assay: Pilot dose-selection studies, behavioural deficits; details: 10 and 30 mg kg^-1 tested, result for 30 mg kg^-1 (unpublished observations)
Method: Baicalein (30 mg kg^−1) dissolved in 10% dimethyl sulphoxide (0.25-0.3 mL) or a corresponding volume of vehicle (10% dimethyl sulphoxide) was administered i.p. immediately following injury or daily for 4 days (immediately, 25, 49 and 73 h) after injury. Behaviour testing using the rotarod, tactile adhesive removal, mNSS and beam walk tests was performed at 28 hours as well as 4, 7, 14, 21 and 28 days post-injury. At 14 and 28 days, the animals were killed, perfused intravascularly and their brains were processed with cresyl violet staining to assess contusion volume (n=8 for each group).

## O=c1cc(-c2ccccc2)oc2cc(O)c(O)c(O)c12 [baicalein]
IL-1β-positive cells
  reduction in IL-1β-positive cells relative to vehicle: 40%
[1]; 30 mg kg^-1 i.p., days 1, 4, 7 and 21 after injury
  rotarod test, multiple-dose versus single-dose treatment: significantly more effective
[1]; multiple-dose 30 mg kg^-1 i.p. daily for 4 days
  performance on the rotarod test versus vehicle-treated rats: significantly better
[1]; single-dose 30 mg kg^-1 i.p. immediately after injury
  performance on the rotarod test versus vehicle-treated rats: significantly better
[2]
  neuroprotective effects in improving behavioural deficits: found to have neuroprotetcive effects
